From patent publication US10704079B2, “Methods for the detection of beta-lactamases in a sample” (priority 2007, dated 2020)
Converted amounts (≈) assume the structure as drawn.

Key:
Assay in all cases: Imipenem MIC assay, microbroth dilution (CLSI)
Format in all cases: cell-based
[1] = test system: E. coli strains; details: Escherichia coli
Description: (§1) Imipenem MIC Assay was performed by microbroth dilution method according to the CLSI (Clinical and Laboratory Standards Institute) standard.

[2] = test system: Klebsiella oxytoca strains
Description: as §1

[3] = test system: Klebsiella pneumoniae strains; details: for MIC: Klebsiella pneumoniae
Description: as §1
(§2) Imipenem MIC Assay were performed by microbroth dilution method according to the CLSI (Clinical and Laboratory Standards Institute) standard.

[4] = test system: Pseudomonas aeruginosa (PSEAER) strains; details: PSEAER strain 6 of Table 16 (MBL)
Description: as §2

## C[C@@H](O)[C@H]1C(=O)N2C(C(=O)O)=C(SCCN=CN)C[C@H]12 [Imipenem]
[1]; E. coli strain 1 of Table 8 (C-chromo)
  MIC: ≤ 2 µg/mL
[1]; E. coli strain 3 of Table 8 (Carb (KPC))
  MIC: 16 µg/mL (≈ 53.4 µM)
[1]; E. coli strain 4 of Table 8 (ESBL, C-chromo)
  MIC: ≤ 2 µg/mL
[1]; E. coli strain 5 of Table 8 (IRT, C-chromo)
  MIC: ≤ 2 µg/mL
[1]; E. coli strain 6 of Table 8 (OSBL, Carb)
  MIC: 8 µg/mL (≈ 26.7 µM)
[1]; E. coli strain 8 of Table 8 (WT)
  MIC: ≤ 0.25 µg/mL
[1]; E. coli strain 9 of Table 8 (WT)
  MIC: ≤ 2 µg/mL
[1]; E. coli strain 10 of Table 8 (OSBL, C-chromo)
  MIC: ≤ 2 µg/mL
[1]; E. coli strain 11 of Table 8 (ESBL, C)
  MIC: ≤ 2 µg/mL
[2]; Klebsiella oxytoca strain 1 of Table 12 (K1-high)
  Imipenem MIC: ≤ 2 µg/mL
[2]; Klebsiella oxytoca strain 2 of Table 12 (OSBL, K1-high)
  Imipenem MIC: ≤ 2 µg/mL
[2]; Klebsiella oxytoca strain 3 of Table 12 (OSBL, K1-high, Carb)
  Imipenem MIC: > 16 µg/mL
[2]; Klebsiella oxytoca strain 4 of Table 12 (WT)
  Imipenem MIC: ≤ 2 µg/mL
[3]; KLEPENEP strain 5 of Table 16 (WT)
  Imipenem MIC: ≤ 2 µg/mL
[3]; KLEPNEP strain 1 of Table 14 (ESBL, MBL)
  Imipenem MIC: = 4
[3]; KLEPNEP strain 1 of Table 16 (ESBL, MBL)
  Imipenem MIC: 4 µg/mL
[3]; KLEPNEP strain 2 of Table 14 (WT)
  Imipenem MIC: ≤ 2 µg/mL
[3]; KLEPNEP strain 2 of Table 16 (MBL)
  Imipenem MIC: > 16 µg/mL
[3]; KLEPNEP strain 3 of Table 14 (OSBL, Carbapenemase)
  Imipenem MIC: > 16 µg/mL
[3]; KLEPNEP strain 3 of Table 16 (ESBL, Carbapenemase)
  Imipenem MIC: = 8
[3]; KLEPNEP strain 4 of Table 14 (ESBL, C-plasmid)
  Imipenem MIC: ≤ 2 µg/mL
[3]; KLEPNEP strain 4 of Table 16 (ESBL, C-plasmid)
  Imipenem MIC: ≤ 2 µg/mL
[3]; Klebsiella pneumoniae strain 1 of Table 10 (C-plasmid)
  Imipenem MIC: <=2 μg/ml
[3]; Klebsiella pneumoniae strain 6 of Table 10 (ESBL, C-plasmid)
  Imipenem MIC: <=2 μg/ml
[3]; Klebsiella pneumoniae strain 8 of Table 10 (OSBL, C-plasmid)
  Imipenem MIC: <=2 μg/ml
[3]; Klebsiella pneumoniae strain 11 of Table 10 (OSBL, C-plasmid)
  Imipenem MIC: <=2 μg/ml
[3]; Klebsiella pneumoniae strain 14 of Table 10 (ESBL, C-plasmid)
  Imipenem MIC: <=2 μg/ml
[3]; Klebsiella pneumoniae strain 2 of Table 10 (ESBL, MBL)
  MIC: 4 µg/mL (≈ 13.4 µM)
[3]; Klebsiella pneumoniae strain 3 of Table 10 (ESBL, C)
  MIC: ≤ 2 µg/mL
[3]; Klebsiella pneumoniae strain 4 of Table 10 (ESBL, Carb (KPC))
  MIC: 8 µg/mL (≈ 26.7 µM)
[3]; Klebsiella pneumoniae strain 7 of Table 10 (WT)
  MIC: ≤ 2 µg/mL
[3]; Klebsiella pneumoniae strain 9 of Table 10 (OSBL, carb)
  MIC: > 16 µg/mL
[3]; Klebsiella pneumoniae strain 10 of Table 10 (WT)
  MIC: ≤ 2 µg/mL
[3]; Klebsiella pneumoniae strain 12 of Table 10 (MBL)
  MIC: > 16 µg/mL
[3]; Klebsiella pneumoniae strain 13 of Table 10 (ESBL, MBL)
  MIC: 4 µg/mL (≈ 13.4 µM)
[3]; Klebsiella pneumoniae strain 15 of Table 10 (Carb(KPC))
  MIC: 8 µg/mL (≈ 26.7 µM)
[3]; Klebsiella pneumoniae strain 16 of Table 10 (ESBL, Carb(KPC))
  MIC: 8 µg/mL (≈ 26.7 µM)
[4]
  Imipenem MIC: > 16 µg/mL
